Results reported in ChEMBL document CHEMBL1132810, “Inhibition of vertebrate squalene epoxidase by isoprenyl gallates and phenylalkyl gallates” (Bioorg Med Chem Lett, 2000).

The molecules below were run against Squalene monooxygenase (Rattus norvegicus, UniProt P52020) (assay: Compound was evaluated for its inhibitory activity against recombinant rat SE(squalene epoxidase)).
Squalene monooxygenase, sequence (P52020 whole entry): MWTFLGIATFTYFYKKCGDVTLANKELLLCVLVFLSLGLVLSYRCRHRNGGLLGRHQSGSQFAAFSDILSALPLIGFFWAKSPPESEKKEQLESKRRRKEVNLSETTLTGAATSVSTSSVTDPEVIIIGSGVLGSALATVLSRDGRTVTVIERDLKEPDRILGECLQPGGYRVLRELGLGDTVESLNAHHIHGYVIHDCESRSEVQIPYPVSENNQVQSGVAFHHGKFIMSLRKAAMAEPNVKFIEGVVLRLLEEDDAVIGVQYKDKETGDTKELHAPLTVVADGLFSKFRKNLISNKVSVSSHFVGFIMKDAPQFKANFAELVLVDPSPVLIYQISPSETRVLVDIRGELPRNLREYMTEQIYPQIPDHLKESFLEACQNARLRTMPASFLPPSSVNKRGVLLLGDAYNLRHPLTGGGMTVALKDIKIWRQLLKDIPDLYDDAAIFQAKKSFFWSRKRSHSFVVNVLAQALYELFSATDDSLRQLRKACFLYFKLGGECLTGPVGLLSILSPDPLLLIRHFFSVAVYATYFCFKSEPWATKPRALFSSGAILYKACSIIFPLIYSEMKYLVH

SMILES | IC50 [µM]
CC(C)=CCC/C(C)=C/CC/C(C)=C/CC/C=C(\C)CC/C=C(\C)CCCOC(=O)c1cc(O)c(O)c(O)c1 | 5.1
O=C(OCCCCCCCCc1ccccc1)c1cc(O)c(O)c(O)c1 | 12.5
CC(C)=CCC/C(C)=C/CC/C(C)=C/CC/C(C)=C/COC(=O)c1cc(O)c(O)c(O)c1 | 4.5
O=C(OCCCCCCc1ccccc1)c1cc(O)c(O)c(O)c1 | 11.9
O=C(OCCCCCCCCCCc1ccccc1)c1cc(O)c(O)c(O)c1 | 15.3
O=C(OCCCCc1ccccc1)c1cc(O)c(O)c(O)c1 | 61.3
CC(C)=CCC/C(C)=C/CC/C(C)=C/COC(=O)c1cc(O)c(O)c(O)c1 | 1.5
CCCCCCCCCCCCOC(=O)c1cc(O)c(O)c(O)c1 [DODECYL GALLATE] | 0.061
O=C(O[C@@H]1Cc2c(O)cc(O)cc2O[C@@H]1c1cc(O)c(O)c(O)c1)c1cc(O)c(O)c(O)c1 [EPIGALOCATECHIN GALLATE] | 0.69
CC(C)=CCC/C(C)=C/COC(=O)c1cc(O)c(O)c(O)c1 [Geranyl gallate] | 12.5
